Reference: patent US6534525B1, “2-substituted piperidine analogs and their use as subtype-selective NMDA receptor antagonists” (Warner-Lambert & Company, priority 1995, dated 2003)
pIC50: −log10 of the molar value. Counter-ions that a name gives are not always drawn. Like-named read-outs stand apart in the source and are kept apart here.

Experiments:
[1] = target: NMDA receptor subunits 1A/2A (NR1A+NR2A) (Rattus norvegicus, UniProt P35439+Q00959); test: Electrophysiological assay at cloned NMDA receptor subunits expressed in Xenopus oocytes, 1A/2A; format: cell-based; conditions: for IC50: cloned rat NMDA receptor in Xenopus oocytes, two-electrode voltage clamp, currents activated by glutamate and glycine, read-out: Subunits (IC50(μM)) 1A/2A
Protocol: (§1) Electrophysiological Assays at NMDA Receptor Subunits
(§2) The clones were transformed into appropriate host bacteria and plasmid preparations were made with conventional DNA purification techniques. A sample of each clone was linearized by restriction enzyme digestion and cRNA was synthesized with T3 RNA polymerase. The cRNA was diluted to 400 ng/μl and stored in 1 μl aliquots at −80° C. until injection.
(§3) The Xenopus oocyte Expression System
(§4) Follicle-enclosed oocytes were micro-injected with 1:1 mixtures of cRNA:NR1A+NR2A, 2B, 2C or 2D; injecting ˜2,5, or 20 ng of RNA encoding each receptor subunit. NR1A encoding cRNA was injected alone at ˜20 ng. Oocytes were stored in Barth's medium containing (in mM):NaCl, 88; KCl, 1; CaCl2, 0.41; Ca(NO3)2, 0.33; MgSO4, 0.82 NaHCO3, 2.4; HEPES 5, pH 7.4, with 0.1 mg/ml gentamicin sulphate. While oocytes were still surrounded by enveloping ovarian tissues the Barth's medium was supplemented with 0.1% bovine serum.
(§5) Electrical recordings were made using a conventional two-electrode voltage clamp (Dagan TEV-200) over periods ranging between 3-14 days following injection. […] Drugs were applied by bath perfusion. Using oocytes expressing different subunit combinations of NMDA receptor, NMDA currents were activated by co-application of glutamate and glycine. Inhibitory potency of the novel antagonists was assessed on responses elicited by fixed concentrations of glutamate and glycine, by measuring reductions in current induced by progressively increasing concentrations of antagonists.
(§6) Concentration-inhibition curves were fit with equation 1.
(§7) in which Icontrol is the current evoked by agonists alone, pIC50=−log IC50, IC50 is the concentration of antagonist that produces half maximal inhibition, and n is the slope factor. […] For incomplete curves analysis by fitting was unreliable and IC50 values were calculated by simple regression over linear portions of the curves (Origin: Microcal Software).

[2] = target: NMDA receptor subunits 1A/2B (NR1A+NR2B) (Rattus norvegicus, UniProt P35439+Q00960); test: Electrophysiological assay at cloned NMDA receptor subunits expressed in Xenopus oocytes, 1A/2B; format: cell-based; conditions: for IC50: cloned rat NMDA receptor in Xenopus oocytes, two-electrode voltage clamp, currents activated by glutamate and glycine, read-out: Subunits (IC50(μM)) 1A/2B
Protocol: as §1, §2, §3, §4, §5, §6, §7

[3] = target: NMDA receptor subunits 1A/2C (NR1A+NR2C) (Rattus norvegicus, UniProt P35439+Q00961); test: Electrophysiological assay at cloned NMDA receptor subunits expressed in Xenopus oocytes, 1A/2C; format: cell-based; conditions: for IC50: cloned rat NMDA receptor in Xenopus oocytes, two-electrode voltage clamp, currents activated by glutamate and glycine, read-out: Subunits (IC50(μM)) 1A/2C
Protocol: as §1, §2, §3, §4, §5, §6, §7

[4] = test system: maximal electroshock-induced seizures; test: Maximal electroshock-induced seizures (MES); format: in vivo, mice; conditions: Mus musculus, read-out: MES (ED50) (mg/kg)
Protocol: Maximal Electroshock-induced Seizures
Seizures were induced by application of current (50 mA, 60 pulses/sec, 0.8 sec pulse width, 1 sec duration, d.c.) through saline-coated corneal electrodes using a Ugo Basile ECT device (Model 7801). […] A tonic seizure was defined as a hindlimb extension in excess of 90 degrees from the plane of the body. Results were treated in a quantal manner.

[5] = target: NMDA receptor subunits 1A/2D (NR1A+NR2D) (Rattus norvegicus, UniProt P35439+Q62645); test: Electrophysiological assay at cloned NMDA receptor subunits expressed in Xenopus oocytes, 1A/2D; format: cell-based; conditions: two-electrode voltage clamp, currents activated by glutamate and glycine
Text: Electrophysiological Assays at NMDA Receptor Subunits […]
cDNA clones encoding the NR1A, NR2A, NR2B, NR2C and NR2D rat NMDA receptor subtypes were provided by Dr. P. H. Seeburg (see, Morivoshi et al., Nature (Lond.) 354:31-37 (1991); Kutsuwada et al., Nature (Lond.) 358:36-41 (1992) Monyer et al., Science (Washington. D.C.) 256:1217-1221 (1992); Ikeda et al., FEBS Lett. 313:34-38 (1992); Ishii et al., J. Biol. Chem. 268:2836-2843 (1993) for details of these clones or their mouse homologs). The clones were transformed into appropriate host bacteria and plasmid preparations were made with conventional DNA purification techniques. A sample of each clone was linearized by restriction enzyme digestion and cRNA was synthesized with T3 RNA polymerase. The cRNA was diluted to 400 ng/μl and stored in 1 μl aliquots at −80° C. until injection.
The Xenopus oocyte Expression System […]
Electrical recordings were made using a conventional two-electrode voltage clamp (Dagan TEV-200) over periods ranging between 3-14 days following injection. […] Inhibitory potency of the novel antagonists was assessed on responses elicited by fixed concentrations of glutamate and glycine, by measuring reductions in current induced by progressively increasing concentrations of antagonists. […]

Chain of NMDA receptor subunits 1A/2B (NR1A+NR2B) (Q00960 27-1482, other chains not shown): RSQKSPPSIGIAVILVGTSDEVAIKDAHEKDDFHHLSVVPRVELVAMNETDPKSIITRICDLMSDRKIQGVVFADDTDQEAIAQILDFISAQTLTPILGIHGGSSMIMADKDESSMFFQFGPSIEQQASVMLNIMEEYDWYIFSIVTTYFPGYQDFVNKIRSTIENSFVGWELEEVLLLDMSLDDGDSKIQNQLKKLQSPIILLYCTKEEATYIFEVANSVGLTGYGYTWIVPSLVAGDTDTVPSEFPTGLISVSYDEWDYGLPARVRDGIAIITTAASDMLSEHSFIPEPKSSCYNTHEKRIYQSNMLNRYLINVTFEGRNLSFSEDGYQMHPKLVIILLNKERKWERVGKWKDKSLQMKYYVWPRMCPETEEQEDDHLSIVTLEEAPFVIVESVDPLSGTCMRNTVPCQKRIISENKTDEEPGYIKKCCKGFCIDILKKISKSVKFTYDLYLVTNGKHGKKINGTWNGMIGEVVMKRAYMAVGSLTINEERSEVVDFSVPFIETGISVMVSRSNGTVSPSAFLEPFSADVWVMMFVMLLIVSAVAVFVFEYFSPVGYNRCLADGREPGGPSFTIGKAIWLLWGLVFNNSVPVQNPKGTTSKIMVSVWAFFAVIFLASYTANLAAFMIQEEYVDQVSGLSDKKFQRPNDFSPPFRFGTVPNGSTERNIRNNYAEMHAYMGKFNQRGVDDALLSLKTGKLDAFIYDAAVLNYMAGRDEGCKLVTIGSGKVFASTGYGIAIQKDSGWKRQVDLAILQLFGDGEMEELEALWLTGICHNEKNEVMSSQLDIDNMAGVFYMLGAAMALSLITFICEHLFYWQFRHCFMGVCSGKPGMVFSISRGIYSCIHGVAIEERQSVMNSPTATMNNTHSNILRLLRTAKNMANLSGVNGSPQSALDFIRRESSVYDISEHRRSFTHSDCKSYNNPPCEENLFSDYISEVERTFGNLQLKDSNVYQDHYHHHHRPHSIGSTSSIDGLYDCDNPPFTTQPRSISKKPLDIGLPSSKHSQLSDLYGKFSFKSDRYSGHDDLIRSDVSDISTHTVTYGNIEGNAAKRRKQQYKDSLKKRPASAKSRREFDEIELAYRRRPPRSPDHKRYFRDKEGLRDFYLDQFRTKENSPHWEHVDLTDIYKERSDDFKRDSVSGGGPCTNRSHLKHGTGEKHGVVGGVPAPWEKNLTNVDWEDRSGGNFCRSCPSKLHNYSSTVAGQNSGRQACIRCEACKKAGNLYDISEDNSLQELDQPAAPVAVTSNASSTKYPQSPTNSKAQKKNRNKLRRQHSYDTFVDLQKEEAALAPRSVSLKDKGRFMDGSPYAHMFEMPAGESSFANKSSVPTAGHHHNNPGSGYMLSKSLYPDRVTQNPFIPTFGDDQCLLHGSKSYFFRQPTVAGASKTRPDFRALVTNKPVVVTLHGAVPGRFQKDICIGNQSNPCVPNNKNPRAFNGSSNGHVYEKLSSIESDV
Chain of NMDA receptor subunits 1A/2A (NR1A+NR2A) (Q00959 23-1464, other chains not shown): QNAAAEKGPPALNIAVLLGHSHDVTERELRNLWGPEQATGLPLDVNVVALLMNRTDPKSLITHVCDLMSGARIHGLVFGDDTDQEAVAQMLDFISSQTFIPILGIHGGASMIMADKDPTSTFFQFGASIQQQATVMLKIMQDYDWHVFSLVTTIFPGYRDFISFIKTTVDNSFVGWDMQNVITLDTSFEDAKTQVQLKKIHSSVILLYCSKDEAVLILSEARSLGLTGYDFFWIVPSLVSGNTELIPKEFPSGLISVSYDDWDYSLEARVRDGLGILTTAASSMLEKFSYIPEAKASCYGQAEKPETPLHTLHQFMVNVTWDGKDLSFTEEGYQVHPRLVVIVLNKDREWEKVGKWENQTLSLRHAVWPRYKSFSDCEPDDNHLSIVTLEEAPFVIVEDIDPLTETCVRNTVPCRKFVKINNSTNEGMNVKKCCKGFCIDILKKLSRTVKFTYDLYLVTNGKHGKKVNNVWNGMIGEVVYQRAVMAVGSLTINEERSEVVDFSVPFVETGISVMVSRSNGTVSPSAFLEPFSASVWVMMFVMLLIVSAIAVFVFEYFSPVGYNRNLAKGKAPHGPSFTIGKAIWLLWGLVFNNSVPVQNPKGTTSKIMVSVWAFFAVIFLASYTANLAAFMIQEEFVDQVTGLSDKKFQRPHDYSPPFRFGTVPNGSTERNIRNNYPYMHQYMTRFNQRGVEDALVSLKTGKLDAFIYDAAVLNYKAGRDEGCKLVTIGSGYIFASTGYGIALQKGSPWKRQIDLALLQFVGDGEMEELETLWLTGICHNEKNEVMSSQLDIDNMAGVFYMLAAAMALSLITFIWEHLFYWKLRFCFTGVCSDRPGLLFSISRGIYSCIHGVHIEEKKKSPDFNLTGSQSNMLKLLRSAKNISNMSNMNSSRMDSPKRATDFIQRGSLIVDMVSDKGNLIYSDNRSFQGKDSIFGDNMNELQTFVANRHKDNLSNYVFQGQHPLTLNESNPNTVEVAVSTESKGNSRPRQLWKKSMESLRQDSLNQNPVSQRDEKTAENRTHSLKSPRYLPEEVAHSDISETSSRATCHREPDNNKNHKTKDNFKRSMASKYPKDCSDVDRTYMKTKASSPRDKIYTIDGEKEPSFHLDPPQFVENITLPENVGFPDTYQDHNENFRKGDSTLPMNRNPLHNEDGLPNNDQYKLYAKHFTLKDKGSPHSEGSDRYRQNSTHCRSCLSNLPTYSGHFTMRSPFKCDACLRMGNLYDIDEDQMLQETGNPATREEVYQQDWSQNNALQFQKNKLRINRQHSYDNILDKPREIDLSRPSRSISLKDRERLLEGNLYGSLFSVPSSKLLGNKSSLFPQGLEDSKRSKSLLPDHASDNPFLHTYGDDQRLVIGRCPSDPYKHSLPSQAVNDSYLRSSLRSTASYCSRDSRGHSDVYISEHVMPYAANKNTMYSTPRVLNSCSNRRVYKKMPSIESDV
Chain of NMDA receptor subunits 1A/2C (NR1A+NR2C) (Q00961 20-1237, other chains not shown): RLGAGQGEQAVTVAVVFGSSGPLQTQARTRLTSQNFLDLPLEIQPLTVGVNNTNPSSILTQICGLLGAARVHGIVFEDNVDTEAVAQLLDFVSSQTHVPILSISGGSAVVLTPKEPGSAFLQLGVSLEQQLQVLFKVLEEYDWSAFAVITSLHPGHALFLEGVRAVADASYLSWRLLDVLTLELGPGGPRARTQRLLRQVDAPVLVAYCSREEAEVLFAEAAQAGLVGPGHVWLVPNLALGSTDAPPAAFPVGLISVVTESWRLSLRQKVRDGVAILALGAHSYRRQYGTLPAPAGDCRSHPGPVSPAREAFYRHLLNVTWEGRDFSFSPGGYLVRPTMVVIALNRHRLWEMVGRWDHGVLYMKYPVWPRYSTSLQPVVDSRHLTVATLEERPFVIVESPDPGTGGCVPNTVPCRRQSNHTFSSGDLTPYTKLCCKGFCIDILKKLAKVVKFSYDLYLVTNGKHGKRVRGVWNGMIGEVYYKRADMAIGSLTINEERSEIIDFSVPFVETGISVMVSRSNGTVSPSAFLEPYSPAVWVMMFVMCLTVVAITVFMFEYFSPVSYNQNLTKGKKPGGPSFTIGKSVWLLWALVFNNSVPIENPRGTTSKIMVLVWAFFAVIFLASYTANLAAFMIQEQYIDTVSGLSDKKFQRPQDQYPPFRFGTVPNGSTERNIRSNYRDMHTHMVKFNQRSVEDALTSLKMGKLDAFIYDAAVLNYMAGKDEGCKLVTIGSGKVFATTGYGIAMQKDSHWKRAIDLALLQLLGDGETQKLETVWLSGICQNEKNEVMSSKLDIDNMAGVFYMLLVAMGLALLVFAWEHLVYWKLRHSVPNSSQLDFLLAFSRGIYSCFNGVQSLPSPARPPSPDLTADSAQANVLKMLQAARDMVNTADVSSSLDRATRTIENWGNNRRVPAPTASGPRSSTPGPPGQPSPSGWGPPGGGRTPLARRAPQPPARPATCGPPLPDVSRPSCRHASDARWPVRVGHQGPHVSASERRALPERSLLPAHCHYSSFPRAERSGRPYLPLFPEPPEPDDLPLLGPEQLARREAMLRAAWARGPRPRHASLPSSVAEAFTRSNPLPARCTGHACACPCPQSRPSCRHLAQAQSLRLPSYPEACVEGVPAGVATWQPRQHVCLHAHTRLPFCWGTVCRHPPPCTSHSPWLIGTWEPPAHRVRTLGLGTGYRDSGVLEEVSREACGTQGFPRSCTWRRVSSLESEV

Structure (SMILES)	melting point [°C]	IC50 [1] [µM]	IC50 [2] [µM]	IC50 [3] [µM]	also measured
Br.FC(F)(F)c1ccccc1OCCCCN1CCCCC1Cc1ccccc1 (stereo not drawn)	136 to 140				
Br.c1ccc(CCCCN2CCCCC2Cc2ccccc2)cc1 (stereo not drawn)	133 to 135				
Br.c1ccc(CC2CCCCN2CCCCOc2ccccc2)cc1 (stereo not drawn)	100 to 103				
c1ccc(CC2CCCCN2Cc2ccccc2)cc1 (stereo not drawn) [Example 2, 1,2-Dibenzylpiperidine, hydrobromide]		15	19	33	
Br.c1ccc(CCCN2CCCCC2Cc2ccccc2)cc1 (stereo not drawn) [Example 4, 2-Benzyl-1-(3-phenylpropyl)piperidine, hydrobromide]	155 to 157	8	15	125	
c1ccc(CCCCN2CCCCC2Cc2ccccc2)cc1 (stereo not drawn) [Example 5, 2-Benzyl-1-(4-phenylbutyl)piperidine]		5	8	55	ED50 [4]: 4 mg/kg
c1ccc(CC2CCCCN2CCOc2ccccc2)cc1 (stereo not drawn) [Example 6, 2-Benzyl-1-(2-phenoxyethyl)piperidine]		17	25	130	
Br.c1ccc(CC2CCCCN2CCCOc2ccccc2)cc1 (stereo not drawn) [Example 7, 2-Benzyl-1-(3-phenoxypropyl)piperidine hydrobromide]	119 to 121	4	12	45	ED50 [4]: 2.5 mg/kg
c1ccc(CC2CCCCN2CCCCOc2ccccc2)cc1 (stereo not drawn) [Example 8, 2-Benzyl-1-(4-phenoxybutyl)piperidine]		3	8	45	ED50 [4]: 4 mg/kg
Cl.Oc1ccc(OCCN2CCCCC2Cc2ccc(Cl)cc2)cc1 (stereo not drawn) [Example 25, 2-(4-Chlorobenzyl)-1-(2-(4-hydroxyphenoxy)ethyl)piperidine hydrochloride]	229 to 230				pIC50 [1]: 4.21; pIC50 [2]: 5.38; pIC50 [3]: 3.80
Cl.Oc1ccc(OCCN2CCCCC2Cc2ccccc2)cc1 (stereo not drawn) [Example 26, 2-Benzyl-1-(2-(4-hydroxyphenoxy)ethyl)piperidine hydrochloride]	215 to 216				pIC50 [1]: 4.10; pIC50 [2]: 4.82; pIC50 [3]: 3.82

Further lines, with some results ahead:

melting point [°C]	IC50 [1] [µM]	IC50 [2] [µM]	IC50 [3] [µM]	Structure (SMILES)	also measured
143.5 to 144.5				Br.FC(F)(F)c1cccc(OCCCCN2CCCCC2Cc2ccccc2)c1 (stereo not drawn)	
130 to 134				Br.FC(F)(F)c1ccc(OCCCCN2CCCCC2Cc2ccccc2)cc1 (stereo not drawn)	
119 to 123				Br.Fc1cccc(OCCCCN2CCCCC2Cc2ccccc2)c1 (stereo not drawn)	
179 to 180				Fc1ccc(OCC[n+]2ccccc2Cc2ccc(Cl)cc2)cc1.[Br-]	
162.5 to 164.5				Br.c1ccc(CCN2CCCCC2Cc2ccccc2)cc1 (stereo not drawn)	
137.5 to 139.5				c1ccc(CC2CCCCN2CCCCCOc2ccccc2)cc1 (stereo not drawn) (as salt: hydrobromid) [Example 20, 2-Benzyl-1-(5-phenoxypentyl)piperidine hydrobromide]	
180 to 182				O=[N+]([O-])c1ccc(OCCN2CCCCC2Cc2ccccc2)cc1 (stereo not drawn) (as salt: hydrobromid) [Example 21, 2-Benzyl-1-(2-(4-nitrophenoxy)ethyl)-piperidine hydrobromide]	
130				Nc1ccc(OCCN2CCCCC2Cc2ccccc2)cc1 (stereo not drawn) (as salt: hydrobromid) [Example 22, 1-(2-(4-Aminophenoxy)ethyl)-2-benzylpiperidine dihydrobromide]	
	23	50	> 100	Cc1ccccc1OCC(O)CN1CCCCC1Cc1ccccc1 (stereo not drawn) [Example 18, 2-Benzyl-1-[2-hydroxy-3-(2-methyl)phenoxy]propylpiperidine]	IC50 [5]: > 300 µM
	14	22	70	c1ccc(CC2CCCCN2CCCCCOc2ccccc2)cc1 (stereo not drawn) [Example 20, 2-Benzyl-1-(5-phenoxypentyl)piperidine hydrobromide]	
	60	35	240	O=[N+]([O-])c1ccc(OCCN2CCCCC2Cc2ccccc2)cc1 (stereo not drawn) [Example 21, 2-Benzyl-1-(2-(4-nitrophenoxy)ethyl)-piperidine hydrobromide]	
	80	6	180	Nc1ccc(OCCN2CCCCC2Cc2ccccc2)cc1 (stereo not drawn) [Example 22, 1-(2-(4-Aminophenoxy)ethyl)-2-benzylpiperidine dihydrobromide]	
163 to 165	55	22	160	Cl.Fc1ccc(OCCN2CCCCC2Cc2ccc(Cl)cc2)cc1 (stereo not drawn) [Example 24, 2-(4-Chlorobenzyl)-1-(2-(4-fluorophenoxy)ethyl)piperidine hydrochloride]	
163 to 164	30	16	40	Cl.Oc1ccc(OCCCN2CCCCC2Cc2ccccc2)cc1 (stereo not drawn) [Example 27, 2-Benzyl-1-(3-(4-hydroxyphenoxy)propyl)piperidine hydrochloride]	
	15	10	110	Oc1ccc(OCCCCN2CCCCC2Cc2ccccc2)cc1 (stereo not drawn) [Example 28, 2-Benzyl-1-(4-(4-hydroxyphenoxy)butyl)piperidine hydrochloride]	
	7.5	5	33	O=c1[nH]c2ccc(OCCN3CCCCC3Cc3ccccc3)cc2[nH]1 (stereo not drawn) [Example 30, 2-Benzyl-1-(4-(2-oxobenzimidazol-5-oxy)ethyl)piperidine]	
